Patent US20120141589A1, “PARTICLES FOR DRUG DELIVERY AND OTHER APPLICATIONS” (BASF SE, priority 2010, published 2012)

Assays:
[1] = Dissolution test of drug/CaCO3 hybrid particles against raw drug crystals, flow-through UV-Vis; format: physicochemical; details: drug in CaCO3 hybrid particles; 10 mM SDS, pH 1.5 (HCl), 37° C., sink conditions, monitored at 290 nm
Method: In this example, the dissolution rates of the particles were determined, and compared to compared with raw, micron-sized drug crystals.
During the dissolution experiments, for convenience, dissolution media was placed in a dissolution chamber which is typically used for pressure dialysis; no pressure was applied for the measurements described here. The vessel used in these experiments contained a built-in stir bar and the dissolution media was stirred at a rate of approximately one revolution per second. Dissolution media was drawn from the bottom of the vessel, through a 0.1 micron PTFE filter. The media vessel was connected to a flow-through UV-Vis spectrophotometer cell via tubing and the liquid was driven using a peristaltic pump. A flow rate of 8 mL per second was used. The output of the flow-through cell was connected back to the dissolution chamber, so that the flow formed a closed loop; in this manner the volume of the dissolution media was conserved.
All water used was distilled and de-ionized. […] The raw drug powder was not ground. […] All dissolution media was kept at 37° C.

[2] = no UV-vis signal detectable in pure water or acidic water with added HCl
Method: All water used was distilled and de-ionized. These drugs were monitored at a wavelength of 290 nm. Templates were prepared for dissolution testing by grinding pellets in a mortar and pestle into a fine powder. The raw drug powder was not ground. All tests were performed under sink conditions, where the total amount of drug added is less than one third of the saturation concentration. All dissolution media was kept at 37° C.

Row | SMILES | dissolution rate when incorporated into a hybrid structure, compared with raw, micron-sized drug crystals [1] | solubility in water [2]
1 | Clc1ccccc1C(c1ccccc1)(c1ccccc1)n1ccnc1 [chlotrimazole] | enhanced dissolution rates | poorly soluble in water
2 | C[C@]12CC[C@@H]3c4ccc(O)cc4CC[C@H]3[C@@H]1CC[C@@H]2O [estradiol, 17-beta estradiol] | enhanced dissolution rates | 
